14 molecules from patent US20200071316A1, “ACTIVATORS OF THE RETINOIC ACID INDUCIBLE GENE "RIG-I" PATHWAY AND METHODS OF USE THEREOF” (Kineta Immuno-Oncology LLC, priority 2018, published 2020) can be followed below.

Marks after values point to notes of the source that are not given here. Bounds are passed on as bounds.

The subject of test [1] is THP1-Lucia ISG IRF3 −/− cells. The test is described as follows: IRF3-deficient THP1-Lucia ISG IRF3 −/− reporter assay (counter-screen). The class given is cell-based. Particulars: Homo sapiens, 10 μM compound, 18 h after stimulation, read-out: THP1 ISG IRF3 −/−: fold increase of luciferase activity over background. Summed up: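 PMA-differentiated (100 ng/ml) reporter cells carrying ISRE/ISG54 minimal promoter-driven secreted luciferase were stimulated with compounds at 5–20 μM (mostly 10 μM). Luciferase measured 18 h later and expressed as fold increase over untreated background, binned from "−" (<2.4-fold) to "+++++" (≥40-fold).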
(A reporter such as luciferase makes a cellular process visible.)

Test [2] relates to RIG-I deficient CT26 RIG-1−/− cells. Kind of test: CXCL10 secretion in RIG-I deficient CT26 RIG-1−/− cells (ELISA). The class given is cell-based, murine. Conditions: 24 h. Summed up:
(§1)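 Murine CT26 colon carcinoma cells, and CRISPR-generated RIG-I knockout CT26 cells, were seeded at 1×10^4 cells/well and grown 24 h at 37 °C, 5% CO2, then treated with compounds at 5 to 20 μM. CXCL10 in supernatants was measured by ELISA 24 h after stimulation.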
On the technique in general: An ELISA detects its analyte on a solid surface through an enzyme-linked reagent.

Test [3] concerns IRF3 signaling pathway (IRF-inducible ISG54 promotor) in THP1-Lucia ISG cells. Kind of test: THP1-Lucia ISG reporter assay: induction of IRF3-dependent luciferase activity. The class given is cell-based. Conditions: Homo sapiens, 10 μM compound, PMA-differentiated cells, 18 h after stimulation, read-out: THP1 ISG: fold increase of IRF3-dependent luciferase activity over background. Summed up:
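PMA-differentiated (100 ng/ml) reporter cells, parental and IRF3−/−, stimulated with compounds at 5–20 μM (mostly 10 μM). Secreted luciferase measured 18 h later. Scored as fold increase over untreated background in bands from "−" (<2.4-fold) to "+++++" (≥40-fold).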

The subject of test [4] is CXCL10 secretion by CT26 cells. Kind of test: RIG-I dependent CXCL10 secretion by CT26 colon carcinoma cells (ELISA). Particulars: 24 h. The class given is cell-based, murine. Summed up: as §1

`Cn1c(C(=O)Nc2nc3ccc(S(=O)(=O)N4CCCC4)cc3s2)cc2ccccc21` [Example 52, 1-methyl-N-[6-(pyrrolidine-1-sulfonyl)-1,3-benzothiazol-2-yl]-1H-indole-2-carboxamide]: the fold induction at 10 µM in test [1] is < 2.4; in test [3], 10 to 19. For the same molecule, the “CXCL10 secretion by CT26 RIG-I −/− cells” value in test [2] (20 μM compound (*)) is recorded as “−* (“−” indicates less than 100 pg/mL)”. In addition, the “CXCL10 secretion by CT26 cells” value in test [4] (20 μM compound (*)) is reported as “+* (“+” indicates 100-199 pg/mL)”.

Take `O=C(Nc1nc2ccc(S(=O)(=O)N3CCCC3)cc2s1)c1ccc(-c2cccnc2)cc1` [Example 53, 4-(pyridin-3-yl)-N-[6-(pyrrolidine-1-sulfonyl)-1,3-benzothiazol-2-yl]benzamide]: the fold induction at 10 µM in test [1] was < 2.4; in test [3] it was 2.4 to 4.9. In test [2] (10 μM compound), the “CXCL10 secretion by CT26 RIG-I −/− cells” value is “− (“−” indicates less than 100 pg/mL)”. For the same molecule, in test [4] (10 μM compound), the “CXCL10 secretion by CT26 cells” value is “− (“−” indicates less than 100 pg/mL)”.

`O=C(Nc1nc2ccc(OCC(F)(F)F)cc2s1)c1cc2ccccc2cc1OCCN1CCOCC1` [Example 54, 3-[2-(morpholin-4-yl)ethoxy]-N-[6-(2,2,2-trifluoroethoxy)-1,3-benzothiazol-2-yl]naphthalene-2-carboxamide]: the fold induction at 10 µM in test [1] was < 2.4; in test [3], 2.4 to 4.9. The “CXCL10 secretion by CT26 RIG-I −/− cells” value in test [2] (10 μM compound) is reported as “− (“−” indicates less than 100 pg/mL)”. Also, the “CXCL10 secretion by CT26 cells” value in test [4] (10 μM compound) is recorded as “− (“−” indicates less than 100 pg/mL)”.

Consider `O=C(Nc1nc2ccc(S(=O)(=O)N3CC4(COC4)C3)cc2s1)c1cc2ccccc2cc1OCCCCN1CCOCC1` [Example 55, 3-[4-(morpholin-4-yl)butoxy]-N-(6-{2-oxa-6-azaspiro[3.3]heptane-6-sulfonyl}-1,3-benzothiazol-2-yl)naphthalene-2-carboxamide], for which the fold induction at 10 µM in test [1] was < 2.4; in test [3], 2.4 to 4.9. For the same molecule, in test [2] (10 μM compound), the “CXCL10 secretion by CT26 RIG-I −/− cells” value is “− (“−” indicates less than 100 pg/mL)”. The “CXCL10 secretion by CT26 cells” value in test [4] (10 μM compound) is “++ (“++” indicates 200-399 pg/mL)”.

With `O=C(Nc1nc2ccc(S(=O)(=O)N3CCC(O)C3)cc2s1)c1cc2ccccc2cc1OCCN1CCOCC1` (centres unmarked) [Example 56, N-{6-[(3-hydroxypyrrolidin-1-yl)sulfonyl]-1,3-benzothiazol-2-yl}-3-[2-(morpholin-4-yl)ethoxy]naphthalene-2-carboxamide], the fold induction at 10 µM was < 2.4 in test [1] and 10 to 19 in test [3]. The “CXCL10 secretion by CT26 RIG-I −/− cells” value in test [2] (10 μM compound) is on record as “− (“−” indicates less than 100 pg/mL)”. Also, the “CXCL10 secretion by CT26 cells” value in test [4] (10 μM compound) is listed as “+++ (“+++” indicates 400-799 pg/mL)”.

On to `O=C(Nc1nc2ccc(S(=O)(=O)N3CCC(O)C3)cc2s1)c1cc2ccccc2cc1OCCCCN1CCOCC1` (centres unmarked) [Example 57, N-{6-[(3-hydroxypyrrolidin-1-yl)sulfonyl]-1,3-benzothiazol-2-yl}-3-[4-(morpholin-4-yl)butoxy]naphthalene-2-carboxamide], for which the fold induction at 10 µM in test [1] is < 2.4; in test [3], 10 to 19. Besides, the “CXCL10 secretion by CT26 RIG-I −/− cells” value in test [2] (10 μM compound) is “− (“−” indicates less than 100 pg/mL)”. In test [4] (10 μM compound), the “CXCL10 secretion by CT26 cells” value is listed as “+++ (“+++” indicates 400-799 pg/mL)”.

For the molecule `O=C(Nc1nc2ccc(OCC(F)(F)F)cc2s1)c1cc2ccccc2cc1OCCCCN1CCOCC1` [Example 58, 3-[4-(morpholin-4-yl)butoxy]-N-[6-(2,2,2-trifluoroethoxy)-1,3-benzothiazol-2-yl]naphthalene-2-carboxamide], the fold induction at 10 µM in test [1] is < 2.4; in test [3] it was 5 to 9.9. Further, the “CXCL10 secretion by CT26 RIG-I −/− cells” value in test [2] (10 μM compound) was “− (“−” indicates less than 100 pg/mL)”. Besides, the “CXCL10 secretion by CT26 cells” value in test [4] (10 μM compound) is “++ (“++” indicates 200-399 pg/mL)”.

On to `O=C(Nc1nc2ccc(S(=O)(=O)N3CCC3)cc2s1)c1ccc(-c2ccccc2)cc1OCCCCN1CCOCC1` [Example 59], for which the fold induction at 10 µM in test [1] is < 2.4; in test [3], 10 to 19. Moreover, in test [2] (10 μM compound), the “CXCL10 secretion by CT26 RIG-I −/− cells” value is “− (“−” indicates less than 100 pg/mL)”. Besides, the “CXCL10 secretion by CT26 cells” value in test [4] (10 μM compound) is “+++ (“+++” indicates 400-799 pg/mL)”.

Turning to `O=C(Nc1nc2ccc(S(=O)(=O)N3CCC3)cc2s1)c1ccc(-c2ccccc2)cc1OCCN1CCOCC1` [Example 60, N-[6-(azetidine-1-sulfonyl)-1,3-benzothiazol-2-yl]-3-[2-(morpholin-4-yl)ethoxy]-[1,1′-biphenyl]-4-carboxamide], the fold induction at 10 µM in test [1] was < 2.4; in test [3], 20 to 39. Also, the “CXCL10 secretion by CT26 RIG-I −/− cells” value in test [2] (10 μM compound) was “− (“−” indicates less than 100 pg/mL)”. Also, the “CXCL10 secretion by CT26 cells” value in test [4] (10 μM compound) is on record as “++++ (“++++” indicates 800 to 1599 pg/mL)”.

`O=C(Nc1nc2ccc(S(=O)(=O)N3CCC3)cc2s1)c1cc2c(cc1OCCN1CCOCC1)OCO2` [Example 61, N-[6-(azetidine-1-sulfonyl)-1,3-benzothiazol-2-yl]-6-[2-(morpholin-4-yl)ethoxy]-2H-1,3-bezodioxole-5-carboxamide]: the fold induction at 10 µM in test [1] is < 2.4; in test [3] it was 5 to 9.9. For the same molecule, the “CXCL10 secretion by CT26 RIG-I −/− cells” value in test [2] (10 μM compound) is on record as “− (“−” indicates less than 100 pg/mL)”. In test [4] (10 μM compound), the “CXCL10 secretion by CT26 cells” value is reported as “++ (“++” indicates 200-399 pg/mL)”.

In the case of `O=C(Nc1nc2ccc(S(=O)(=O)N3CCC3)cc2s1)c1cc2ccsc2cc1OCCN1CCOCC1` [Example 62, N-[6-(azetidine-1-sulfonyl)-1,3-benzothiazol-2-yl]-6-[2-(morpholin-4-yl)ethoxy]-1-benzothiophene-5-carboxamide], the fold induction at 10 µM is < 2.4 in test [1] and 20 to 39 in test [3]. Besides, in test [2] (10 μM compound), the “CXCL10 secretion by CT26 RIG-I −/− cells” value was “− (“−” indicates less than 100 pg/mL)”. The “CXCL10 secretion by CT26 cells” value in test [4] (10 μM compound) is given as “++++ (“++++” indicates 800 to 1599 pg/mL)”.

As for `O=C(Nc1nc2ccc(S(=O)(=O)N3CCC3)cc2s1)c1cc2ccsc2cc1OCCCCN1CCOCC1` [Example 63, N-[6-(azetidine-1-sulfonyl)-1,3-benzothiazol-2-yl]-6-[4-(morpholin-4-yl)butoxy]-1-benzothiophene-5-carboxamide], the fold induction at 10 µM in test [1] is < 2.4; in test [3], 2.4 to 4.9. Moreover, the “CXCL10 secretion by CT26 RIG-I −/− cells” value in test [2] (10 μM compound) is recorded as “− (“−” indicates less than 100 pg/mL)”. Moreover, the “CXCL10 secretion by CT26 cells” value in test [4] (10 μM compound) is “+ (“+” indicates 100-199 pg/mL)”.

Turning to `O=C(Nc1nc2ccc(S(=O)(=O)N3CCC3)cc2s1)c1cc2c(cc1OCCCCN1CCOCC1)OCO2` [Example 64, N-[6-(azetidine-1-sulfonyl)-1,3-benzothiazol-2-yl]-6-[4-(morpholin-4-yl)butoxy]-2H-1,3-benzodioxole-5-carboxamide], the fold induction at 10 µM in test [1] is < 2.4; in test [3], 10 to 19. In test [2] (10 μM compound), the “CXCL10 secretion by CT26 RIG-I −/− cells” value was “− (“−” indicates less than 100 pg/mL)”. Also, the “CXCL10 secretion by CT26 cells” value in test [4] (10 μM compound) is reported as “+++ (“+++” indicates 400-799 pg/mL)”.

As for `O=C(Nc1nc2ccc(S(=O)(=O)N3CC4(COC4)C3)cc2s1)c1cc2ccccc2cc1OCCN1CCOCC1` [Example 65, 3-[2-(morpholin-4-yl)ethoxy]-N-(6-{2-oxa-6-azaspiro[3.3]heptane-6-sulfonyl}-1,3-benzothiazol-2-yl)naphthalene-2-carboxamide], the fold induction at 10 µM was < 2.4 in test [1] and 2.4 to 4.9 in test [3]. Further, in test [2] (10 μM compound), the “CXCL10 secretion by CT26 RIG-I −/− cells” value is “− (“−” indicates less than 100 pg/mL)”. Also, in test [4] (10 μM compound), the “CXCL10 secretion by CT26 cells” value is listed as “+ (“+” indicates 100-199 pg/mL)”.
